From patent publication US20190209539A1, “THIOHYDANTOIN ANDROGEN RECEPTOR ANTAGONISTS FOR THE TREATMENT OF CANCER” (Janssen Pharmaceutica NV, priority 2016, published 2019)
Numbering of substitutions follows the chain as printed.

How the values were obtained:
[1] = target: T1, wild-type Androgen Receptor (AR-wt) (Homo sapiens, UniProt P10275); assay: LNCaP-AR-wt AG: ARE luciferase reporter assay, agonist mode; type: cell-based; conditions: maximum % stimulation (agonist response), % of 1 μM R-1881 max
T1 construct: expressed in transfected cells; host or cells: LNCaP AR (cs) cells with ARE firefly luciferase lentiviral construct
T1 sequence (P10275 1-920): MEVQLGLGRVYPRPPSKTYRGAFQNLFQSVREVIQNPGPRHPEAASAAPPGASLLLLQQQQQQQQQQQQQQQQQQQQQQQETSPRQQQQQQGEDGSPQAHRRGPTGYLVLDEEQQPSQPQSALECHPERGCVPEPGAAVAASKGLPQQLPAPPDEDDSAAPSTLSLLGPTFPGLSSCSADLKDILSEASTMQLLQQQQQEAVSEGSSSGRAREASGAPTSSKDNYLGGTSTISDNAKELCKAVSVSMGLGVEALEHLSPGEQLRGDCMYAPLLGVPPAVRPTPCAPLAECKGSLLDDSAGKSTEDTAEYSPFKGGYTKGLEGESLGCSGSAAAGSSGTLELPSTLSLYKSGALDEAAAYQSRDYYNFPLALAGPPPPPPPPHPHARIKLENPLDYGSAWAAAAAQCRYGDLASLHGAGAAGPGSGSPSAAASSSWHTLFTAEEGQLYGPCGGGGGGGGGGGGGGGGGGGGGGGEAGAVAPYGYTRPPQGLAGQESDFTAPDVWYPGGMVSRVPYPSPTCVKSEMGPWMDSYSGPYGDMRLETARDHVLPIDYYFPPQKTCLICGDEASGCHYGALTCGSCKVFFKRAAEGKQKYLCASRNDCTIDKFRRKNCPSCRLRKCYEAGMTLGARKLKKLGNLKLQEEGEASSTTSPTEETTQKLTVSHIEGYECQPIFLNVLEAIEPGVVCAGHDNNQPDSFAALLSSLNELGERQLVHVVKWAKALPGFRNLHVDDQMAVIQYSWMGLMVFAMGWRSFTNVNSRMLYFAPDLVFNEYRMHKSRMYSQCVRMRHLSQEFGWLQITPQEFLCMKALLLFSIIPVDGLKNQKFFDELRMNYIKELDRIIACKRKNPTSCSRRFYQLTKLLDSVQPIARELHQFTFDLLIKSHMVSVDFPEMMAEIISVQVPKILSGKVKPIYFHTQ
Procedure: (§1) A stable pooled-population cell line was generated using puromycin (Life Technologies) selection at 1:10,000 v/v. The protocol below was used for both cell lines and for testing of the compounds of Formula (I) of the present invention.
(§2) LNCaP cells were grown to about 80% confluence, media removed and cells rinsed in Hank's balanced salt solution prior to separation from the plate with 0.05% Trypsin EDTA. Cells were lifted and trypsin negated in complete CSS (charcoal stripped serum) culture media. […] Agonist challenge was at 400 pM for WT assay and 600 pM for F876L assay. Plates containing cells and compounds herein were incubated for a further 20-24 hours at 37° C., 5% CO2 before addition of 40 μL/well of Steady-Glo Luciferase Assay System Reagent (Promega# E2520). After 1 h, plates were read for luminescence on a BMG Pherastar.
(§3) EC/IC50 calculations were achieved utilizing calculated RLU data and data fitting macros. Data were fit using least-squares methods to the following formula: […]
(§4) As used herein: pIC50 is defined as—Log10(IC50 expressed in [Molar]). pEC50 is defined as—Log10(EC50 expressed in [Molar]). […] LNCaP-AR-wt ANT refers to the reporter assay using LNCaP cells stably transfected with the Androgen Response Element Firefly Luciferase lentiviral construct and wild-type Androgen Receptor (AR-wt) in Antagonist mode. LNCaP-AR-wt AG refers to the reporter assay using LNCaP cells stably transfected with the Androgen Response Element Firefly Luciferase lentiviral construct and wild-type Androgen Receptor (AR-wt) in Agonist mode. LNCaP-AR-F876L ANT refers to the reporter assay using LNCaP cells stably transfected with the Androgen Response Element Firefly Luciferase lentiviral construct and F876L mutant Androgen Receptor (AR-F876L) in Antagonist mode. LNCaP-AR-F876L AG refers to the reporter assay using LNCaP cells stably transfected with the Androgen Response Element Firefly Luciferase lentiviral construct and F876L mutant Androgen Receptor (AR-F876L) in Agonist mode.

[2] = target: T2, F876L mutant Androgen Receptor (AR-F876L) (Homo sapiens, UniProt P10275, F877L); assay: LNCaP-AR-F876L AG: ARE luciferase reporter assay, agonist mode; type: cell-based; conditions: maximum % stimulation (agonist response), % of 1 μM R-1881 max
T2 construct: expressed in transfected cells; host or cells: LNCaP F876L cells with ARE firefly luciferase lentiviral construct
T2 sequence (P10275 1-920 F877L): T1 sequence (P10275 1-920) with F877L
Procedure: as §1, §2, §3, §4

In the case of `N#Cc1ncc(N2C(=O)C3(CCC3)N(c3ccc(OCCCN4CCCC4)c(F)c3)C2=S)cc1C(F)(F)F` [Cpd 55, 5-[8-[3-fluoro-4-(3-pyrrolidin-1-ylpropoxy)phenyl]-5-oxo-7-thioxo-6,8-diazaspiro[3.4]octan-6-yl]-3-(trifluoromethyl)pyridine-2-carbonitrile], the “LNCaP-AR-wt AG MAX % Stim” value [1] is reported as 0.7% and the “LNCaP-AR-F876L AG MAX % Stim” value [2] is reported as 0.6%.
`N#Cc1ncc(N2C(=O)C3(CCC3)N(c3ccc(C(=O)NCc4cccs4)c(F)c3)C2=S)cc1C(F)(F)F` [Cpd 59, 4-[6-[6-cyano-5-(trifluoromethyl)-3-pyridyl]-5-oxo-7-thioxo-6,8-diazaspiro[3.4]octan-8-yl]-2-fluoro-N-(2-thienylmethyl)benzamide] was tested, and the “LNCaP-AR-wt AG MAX % Stim” value [1] was 1.5% and the “LNCaP-AR-F876L AG MAX % Stim” value [2] was 0.7%.
For `N#Cc1ncc(N2C(=O)C3(CCC3)N(c3ccc(C(=O)NCc4ccccn4)c(F)c3)C2=S)cc1C(F)(F)F` [Cpd 44, 4-[6-[6-cyano-5-(trifluoromethyl)-3-pyridyl]-5-oxo-7-thioxo-6,8-diazaspiro[3.4]octan-8-yl]-2-fluoro-N-(2-pyridylmethyl)benzamide], the “LNCaP-AR-wt AG MAX % Stim” value [1] was −0.2% and the “LNCaP-AR-F876L AG MAX % Stim” value [2] was 0.0%.
With `N#Cc1ncc(N2C(=O)C3(CCC3)N(c3ccc4ccncc4c3)C2=S)cc1C(F)(F)F` [Cpd 7, 5-[8-(7-isoquinolyl)-5-oxo-7-thioxo-6,8-diazaspiro[3.4]octan-6-yl]-3-(trifluoromethyl)pyridine-2-carbonitrile] the “LNCaP-AR-wt AG MAX % Stim” value [1] was −0.2% and the “LNCaP-AR-F876L AG MAX % Stim” value [2] was 0.0%.
With `Cc1cc(N2C(=O)C3(CCC3)N(c3ccc(Oc4ccncn4)cc3)C2=S)cnc1C#N` [Cpd 62, 3-methyl-5-[5-oxo-8-(4-pyrimidin-4-yloxyphenyl)-7-thioxo-6,8-diazaspiro[3.4]octan-6-yl]pyridine-2-carbonitrile] the “LNCaP-AR-wt AG MAX % Stim” value [1] was 0.8% and the “LNCaP-AR-F876L AG MAX % Stim” value [2] was 0.4%.
For `Cc1ccc(NC(=O)c2ccc(N3C(=S)N(c4cnc(C#N)c(C)c4)C(=O)C34CCC4)cc2F)cn1` [Cpd 75, 4-[6-(6-cyano-5-methyl-3-pyridyl)-5-oxo-7-thioxo-6,8-diazaspiro[3.4]octan-8-yl]-2-fluoro-N-(6-methyl-3-pyridyl)benzamide], the “LNCaP-AR-wt AG MAX % Stim” value [1] was 0.8% and the “LNCaP-AR-F876L AG MAX % Stim” value [2] was 0.8%.
With `N#Cc1ncc(N2C(=O)C3(CCC3)N(c3ccc(Oc4ccncn4)cc3)C2=S)cc1C(F)(F)F` [Cpd 71, 5-[5-oxo-8-(4-pyrimidin-4-yloxyphenyl)-7-thioxo-6,8-diazaspiro[3.4]octan-6-yl]-3-(trifluoromethyl)pyridine-2-carbonitrile] the “LNCaP-AR-wt AG MAX % Stim” value [1] was 0.5% and the “LNCaP-AR-F876L AG MAX % Stim” value [2] was 0.9%.
For `Cc1cc(N2C(=O)C3(CCC3)N(c3ccc(C4CCOCC4)cc3)C2=S)cnc1C#N` [Cpd 101, 3-methyl-5-[5-oxo-8-(4-tetrahydropyran-4-ylphenyl)-7-thioxo-6,8-diazaspiro[3.4]octan-6-yl]pyridine-2-carbonitrile], the “LNCaP-AR-wt AG MAX % Stim” value [1] was 1.1% and the “LNCaP-AR-F876L AG MAX % Stim” value [2] was 1.7%.
In the case of `CCCNC(=O)c1ccc(N2C(=S)N(c3cnc(C#N)c(C(F)(F)F)c3)C(=O)C23CCC3)cc1F` [Cpd 68, 4-[6-[6-cyano-5-(trifluoromethyl)-3-pyridyl]-5-oxo-7-thioxo-6,8-diazaspiro[3.4]octan-8-yl]-2-fluoro-N-propyl-benzamide], the “LNCaP-AR-wt AG MAX % Stim” value [1] is reported as 0.2% and the “LNCaP-AR-F876L AG MAX % Stim” value [2] is reported as 0.9%.
With `Cc1cc(N2C(=O)C3(CCC3)N(c3ccc(C(=O)Nc4nccs4)c(F)c3)C2=S)cnc1C#N` [Cpd 63, 4-[6-(6-cyano-5-methyl-3-pyridyl)-5-oxo-7-thioxo-6,8-diazaspiro[3.4]octan-8-yl]-2-fluoro-N-thiazol-2-yl-benzamide] the “LNCaP-AR-wt AG MAX % Stim” value [1] was 0.7% and the “LNCaP-AR-F876L AG MAX % Stim” value [2] was 0.3%.
With `Cc1cc(N2C(=O)C3(CCC3)N(c3ccc(OC4CCOCC4)cc3)C2=S)cnc1C#N` [Cpd 87, 3-methyl-5-[5-oxo-8-(4-tetrahydropyran-4-yloxyphenyl)-7-thioxo-6,8-diazaspiro[3.4]octan-6-yl]pyridine-2-carbonitrile] the “LNCaP-AR-wt AG MAX % Stim” value [1] was 1.1% and the “LNCaP-AR-F876L AG MAX % Stim” value [2] was 0.9%.
With `N#Cc1ncc(N2C(=O)C3(CCC3)N(c3ccc(OC4CCN(CCO)CC4)cc3)C2=S)cc1C(F)(F)F` [Cpd 51, 5-[8-[4-[[1-(2-hydroxyethyl)-4-piperidyl]oxy]phenyl]-5-oxo-7-thioxo-6,8-diazaspiro[3.4]octan-6-yl]-3-(trifluoromethyl)pyridine-2-carbonitrile] the “LNCaP-AR-wt AG MAX % Stim” value [1] was 0.8% and the “LNCaP-AR-F876L AG MAX % Stim” value [2] was 0.2%.
In the case of `N#Cc1ncc(N2C(=O)C3(CCC3)N(c3ccccc3)C2=S)cc1C(F)(F)F` [Cpd 70, 5-(5-oxo-8-phenyl-7-thioxo-6,8-diazaspiro[3.4]octan-6-yl)-3-(trifluoromethyl)pyridine-2-carbonitrile], the “LNCaP-AR-wt AG MAX % Stim” value [1] is reported as 0.3% and the “LNCaP-AR-F876L AG MAX % Stim” value [2] is reported as 0.9%.
`N#Cc1ncc(N2C(=O)C3(CCC3)N(c3ccc(C(=O)NCc4ccccc4)c(F)c3)C2=S)cc1C(F)(F)F` [Cpd 36, N-benzyl-4-[6-[6-cyano-5-(trifluoromethyl)-3-pyridyl]-5-oxo-7-thioxo-6,8-diazaspiro[3.4]octan-8-yl]-2-fluoro-benzamide] was tested, and the “LNCaP-AR-wt AG MAX % Stim” value [1] was 0.9% and the “LNCaP-AR-F876L AG MAX % Stim” value [2] was 0.3%.
With `N#Cc1ncc(N2C(=O)C3(CCC3)N(c3ccc(C(=O)NCCCN4CCOCC4)c(F)c3)C2=S)cc1C(F)(F)F` [Cpd 72, 4-[6-[6-cyano-5-(trifluoromethyl)-3-pyridyl]-5-oxo-7-thioxo-6,8-diazaspiro[3.4]octan-8-yl]-2-fluoro-N-(3-morpholinopropyl)benzamide] the “LNCaP-AR-wt AG MAX % Stim” value [1] was 0.3% and the “LNCaP-AR-F876L AG MAX % Stim” value [2] was 0.6%.
With `N#Cc1ncc(N2C(=O)C3(CCC3)N(c3ccc4ccccc4c3)C2=S)cc1C(F)(F)F` [Cpd 18, 5-[8-(2-naphthyl)-5-oxo-7-thioxo-6,8-diazaspiro[3.4]octan-6-yl]-3-(trifluoromethyl)pyridine-2-carbonitrile] the “LNCaP-AR-wt AG MAX % Stim” value [1] was −0.2% and the “LNCaP-AR-F876L AG MAX % Stim” value [2] was 0.0%.
